# Measurements published in the supplement of paper PMC11061612.
# How the values were obtained:
# [1] = compound: C1CC(C1)(C(=O)[O-])C(=O)[O-].N.N.[Pt+2] [Carboplatin]; conditions: max 10 µM
# Method in brief: (§1)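 Viability was measured with CellTiter-Glo 2.0 luminescence after 72 hours of dosing at a final DMSO of typically 0.2%, and scaled between blank-well and DMSO-well means. Beforehand, cancer cell lines sat 24 hours at 37°C and 5% CO2 in 1536-well plates in 7.5 μl DMEM/F12 or RPMI with 10% FBS. A non-linear mixed effects model fitted two-parameter logistic curves to the dose responses. The single-agent IC50 comes from these fits.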
# [2] = compound: C1CN(CCC1(C(=O)N[C@@H](CCO)C2=CC=C(C=C2)Cl)N)C3=NC=NC4=C3C=CN4 [AZD5363]; conditions: max 10 µM
# Method in brief: as §1
# [3] = compound: C=CCn1c(=O)c2cnc(Nc3ccc(N4CCN(C)CC4)cc3)nc2n1-c1cccc(C(C)(C)O)n1 [AZD1775]; conditions: max 3 µM
# Method in brief: as §1
# [4] = compound: CC(=O)Nc1cccc(-n2c(=O)n(C3CC3)c(=O)c3c(Nc4ccc(I)cc4F)n(C)c(=O)c(C)c32)c1 [Trametinib]; conditions: max 1 µM
# Method in brief: as §1
# [5] = compound: CC(=O)O[C@H]1C(=O)[C@@]2(C)[C@H]([C@H](OC(=O)c3ccccc3)[C@]3(O)C[C@H](OC(=O)[C@H](O)[C@@H](NC(=O)c4ccccc4)c4ccccc4)C(C)=C1C3(C)C)[C@]1(OC(C)=O)CO[C@@H]1C[C@@H]2O [Paclitaxel]; conditions: max 3 µM
# Method in brief: as §1
# [6] = compound: CC(=O)c1c(C)c2cnc(Nc3ccc(N4CCNCC4)cn3)nc2n(C2CCCC2)c1=O [Palbociclib]; conditions: max 10 µM
# Method in brief: as §1
# [7] = compound: CC(C)n1c(=O)n(C)c2cnc3cc(F)c(-c4ccc(OCCCN5CCCCC5)nc4)cc3c21 [AZD1390]; conditions: max 0.3 µM
# Method in brief: as §1
# [8] = compound: CC1(C)CCC(CN2CCN(c3ccc(C(=O)NS(=O)(=O)c4ccc(NCC5CCOCC5)c([N+](=O)[O-])c4)c(Oc4cnc5[nH]ccc5c4)c3)CC2)=C(c2ccc(Cl)cc2)C1 [Venetoclax]; conditions: max 1 µM
# Method in brief: as §1
# [9] = compound: CC1=C(C(=CC=C1)Cl)NC(=O)C2=CN=C(S2)NC3=CC(=NC(=N3)C)N4CCN(CC4)CCO [Dasatinib]; conditions: max 2 µM
# Method in brief: as §1
# [10] = compound: CC1=CN2[C@@H](C1)C=NC3=CC(=C(C=C3C2=O)OC)OCCCCCOC4=C(C=C5C(=C4)N=C[C@@H]6CC(=CN6C5=O)C)OC [SG3199]; conditions: max 0.001 µM
# Method in brief: as §1
# [11] = compound: CCN(CCO)CCCOc1ccc2c(Nc3cc(CC(=O)Nc4cccc(F)c4)[nH]n3)ncnc2c1 [AZD2811]; conditions: max 1 µM
# Method in brief: as §1
# [12] = compound: CCc1c2c(nc3ccc(O)cc13)-c1cc3c(c(=O)n1C2)COC(=O)[C@]3(O)CC [SN-38]; conditions: max 0.3 µM
# Method in brief: as §1
# [13] = compound: CN(C)CCCOc1ccc(-c2ccc3ncc4c(c3c2)n(C2CCOCC2)c(=O)n4C)cn1 [AZD0156]; conditions: max 3 µM
# Method in brief: as §1
# [14] = compound: CN(CC[C@H](CSC1=CC=CC=C1)NC2=C(C=C(C=C2)S(=O)(=O)NC(=O)C3=CC=C(C=C3)N4CCC(CC4)[C@H](C5=CC=CC=C5C6=CC=C(C=C6)Cl)O)S(=O)(=O)C(F)(F)F)CCO [AZD4320]; conditions: max 1 µM
# Method in brief: as §1
# [15] = compound: COc1cc(Nc2ncc3c(n2)-c2ccc(Cl)cc2C(c2c(F)cccc2OC)=NC3)ccc1C(=O)O [Alisertib]; conditions: max 10 µM
# Method in brief: as §1
# [16] = compound: COc1cc([C@@H]2c3cc4c(cc3[C@@H](O[C@@H]3O[C@@H]5CO[C@@H](C)O[C@H]5[C@H](O)[C@H]3O)[C@H]3COC(=O)[C@H]23)OCO4)cc(OC)c1O [Etoposide]; conditions: max 10 µM
# Method in brief: as §1
# [17] = compound: COc1cc2ncnc(Nc3ccc(F)c(Cl)c3)c2cc1OCCCN1CCOCC1 [Gefitinib]; conditions: max 10 µM
# Method in brief: as §1
# [18] = compound: COc1cccc(OCCCN)c1-c1cc(Nc2cnc(C#N)cn2)n[nH]1 [Prexasertib]; conditions: max 1 µM
# Method in brief: as §1
# [19] = compound: COc1cccc2c1C(=O)c1c(O)c3c(c(O)c1C2=O)C[C@@](O)(C(=O)CO)C[C@@H]3O[C@H]1C[C@H](N)[C@H](O)[C@H](C)O1 [Doxorubicin]; conditions: max 1 µM
# Method in brief: as §1
# [20] = compound: COc1nnc2ccc(N3CCC(c4ccc(OCCN5CCN(C)C(=O)[C@H]5C)cc4)CC3)nn12 [AZD5153]; conditions: max 1 µM
# Method in brief: as §1
# [21] = compound: CS(=O)(=O)CCNCc1ccc(-c2ccc3ncnc(Nc4ccc(OCc5cccc(F)c5)c(Cl)c4)c3c2)o1 [Lapatinib]; conditions: max 10 µM
# Method in brief: as §1
# [22] = compound: C[C@@H](Nc1cc(F)cc(F)c1)c1cc(C(=O)N(C)C)cc2c(=O)cc(N3CCOCC3)oc12 [AZD8186]
# Method in brief: as §1
# [23] = compound: C[C@@H](Oc1cc(-c2cnn(C3CCNCC3)c2)cnc1N)c1c(Cl)ccc(F)c1Cl [Crizotinib]; conditions: max 10 µM
# Method in brief: as §1
# [24] = compound: C[C@@H](c1ccc2nccn2c1)n1nnc2ncc(-c3cnn(C)c3)nc21 [Savolitinib]; conditions: max 1 µM
# Method in brief: as §1
# [25] = compound: C[C@@H]1COCCN1C2=NC(=NC(=C2)C3(CC3)[S@](=N)(=O)C)C4=C5C=CNC5=NC=C4 [AZD6738]; conditions: max 10 µM
# Method in brief: as §1
# [26] = compound: Cc1c2c(nn1C)CSCc1cc(n(C)n1)CSc1cc(c3ccccc3c1)OCCCc1c(C(=O)O)n(C)c3c-2c(Cl)ccc13 [AZD5991]; conditions: max 1 µM
# Method in brief: as §1
# [27] = compound: Cc1cc2ncnn2cc1Nc1ncc2c(n1)n(C1CCOCC1)c(=O)n2C [AZD7648]; conditions: max 10 µM
# Method in brief: as §1
# [28] = compound: Cc1nc(-c2cn3c(n2)-c2ccc(-c4cnn(C(C)(C)C(N)=O)c4)cc2OCC3)n(C(C)C)n1 [Taselisib]; conditions: max 10 µM
# Method in brief: as §1
# [29] = compound: Cn1cnc2c(F)c(Nc3ccc(Br)cc3Cl)c(C(=O)NOCCO)cc21 [Selumetinib]; conditions: max 10 µM
# Method in brief: as §1
# [30] = compound: N#Cc1cnc(Nc2cc(NC[C@H]3CNCCO3)c(C(F)(F)F)cn2)cn1 [SRA737]; conditions: max 10 µM
# Method in brief: as §1
# [31] = compound: NC1(c2ccc(-c3nc4ccn5c(=O)[nH]nc5c4cc3-c3ccccc3)cc2)CCC1 [MK-2206]; conditions: max 10 µM
# Method in brief: as §1
# [32] = compound: Nc1ccn([C@@H]2O[C@H](CO)[C@@H](O)C2(F)F)c(=O)n1 [Gemcitabine]; conditions: max 0.3 µM
# Method in brief: as §1
# [33] = compound: O=C(Nc1ccc2[nH]nc(-c3ccncc3)c2c1)[C@@H]1CCN(CC(=O)N2CCN(c3ccc(-c4ncccn4)cc3)CC2)C1; conditions: max 5 µM
# Method in brief: as §1
# [34] = compound: O=C(c1cc(Cc2n[nH]c(=O)c3ccccc23)ccc1F)N1CCN(C(=O)C2CC2)CC1 [Olaparib]; conditions: max 10 µM
# Method in brief: as §1
# [35] = compound: O=c1[nH]cc(F)c(=O)[nH]1 [5-Fluorouracil]; conditions: max 20 µM
# Method in brief: as §1
# [36] = compound: C1CN(CCC1(C(=O)N[C@@H](CCO)C2=CC=C(C=C2)Cl)N)C3=NC=NC4=C3C=CN4 [Capivasertib]; conditions: max 10 µM
# Method in brief: as §1
Cell Line,"IC50, cell viability 72 h [1] [nM]","IC50, cell viability 72 h [2] [nM]","IC50, cell viability 72 h [3] [nM]","IC50, cell viability 72 h [4] [nM]","IC50, cell viability 72 h [5] [nM]","IC50, cell viability 72 h [6] [nM]","IC50, cell viability 72 h [7] [nM]","IC50, cell viability 72 h [8] [nM]","IC50, cell viability 72 h [9] [nM]","IC50, cell viability 72 h [10] [nM]","IC50, cell viability 72 h [11] [nM]","IC50, cell viability 72 h [12] [nM]","IC50, cell viability 72 h [13] [nM]","IC50, cell viability 72 h [14] [nM]","IC50, cell viability 72 h [15] [nM]","IC50, cell viability 72 h [16] [nM]","IC50, cell viability 72 h [17] [nM]","IC50, cell viability 72 h [18] [nM]","IC50, cell viability 72 h [19] [nM]","IC50, cell viability 72 h [20] [nM]","IC50, cell viability 72 h [21] [nM]","IC50, cell viability 72 h ([22]; max 10 µM) [nM]","IC50, cell viability 72 h [23] [nM]","IC50, cell viability 72 h [24] [nM]","IC50, cell viability 72 h [25] [nM]","IC50, cell viability 72 h [26] [nM]","IC50, cell viability 72 h [27] [nM]","IC50, cell viability 72 h [28] [nM]","IC50, cell viability 72 h [29] [nM]","IC50, cell viability 72 h [30] [nM]","IC50, cell viability 72 h [31] [nM]","IC50, cell viability 72 h [32] [nM]","IC50, cell viability 72 h [33] [nM]","IC50, cell viability 72 h [34] [nM]","IC50, cell viability 72 h [35] [nM]","IC50, cell viability 72 h [36] [nM]","IC50, cell viability 72 h ([22]; max 3 µM) [nM]"
COR-L279 (Small Cell Lung Carcinoma),> 10000,9250,1600,> 1000,< 3,> 10000,> 300,> 1000,> 2000,> 1,93,1.69,> 3000,198,952,843,> 10000,97.9,42.1,178,6640,7510,3710,> 1000,7380,> 1000,> 10000,2130,> 10000,> 10000,3150,34.6,> 5000,3430,> 20000,,
CW-2 (Colorectal Carcinoma),> 10000,> 10000,2720,> 1000,1590,> 10000,> 300,> 1000,> 2000,> 1,> 1000,150,> 3000,> 1000,> 10000,> 10000,> 10000,> 1000,> 1000,861,> 10000,> 10000,> 10000,> 1000,> 10000,> 1000,> 10000,> 10000,> 10000,> 10000,> 10000,246,> 5000,> 10000,> 20000,,
DMS-114 (Small Cell Lung Carcinoma),> 10000,> 10000,> 3000,> 1000,132,> 10000,> 300,> 1000,> 2000,> 1,> 1000,230,> 3000,> 1000,> 10000,> 10000,> 10000,> 1000,> 1000,688,> 10000,> 10000,> 10000,> 1000,> 10000,782,> 10000,5190,> 10000,> 10000,> 10000,> 300,> 5000,> 10000,> 20000,,
H9 (T-Cell Non-Hodgkin's Lymphoma),,,416,2.71,,> 10000,> 300,> 1000,> 2000,> 1,26,6.62,> 3000,142,115,,7120,7.26,83.8,6.23,9540,,2360,> 1000,1310,413,> 10000,> 10000,53.6,,818,,,> 10000,,3070,> 3000
IM-95 (Gastric Carcinoma),,,> 3000,> 1000,,> 10000,> 300,> 1000,> 2000,> 1,> 1000,> 300,> 3000,398,> 10000,,> 10000,> 1000,> 1000,> 1000,> 10000,,> 10000,> 1000,> 10000,276,> 10000,7240,> 10000,,> 10000,,,> 10000,,> 10000,> 3000
